Test results published in PubChem BioAssay AID1963962 (Molecular Pharmacology Branch, DTP, NCI, 2024).

Tested on: 967376-340-R-J2-PDC multicell spheroid viability
Assay: Anticancer human tumor 967376-340-R-J2-PDC patient-derived colon adenocarcinoma cell line growth inhibition [PI3K]
Settings: for viability, T/C: stronger effect = lower value
Method in brief: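 Tumor cells were combined with HUVEC and MSCs into spheroids, then dosed with PI3K-inhibitor combinations over half-log ranges capped near clinical Cmax or 10 microM.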

[1] = curve of first compound, second compound 0.00316 µM
[2] = curve of first compound, second compound 0.01 µM
[3] = curve of first compound, second compound 0.0316 µM
[4] = curve of first compound, second compound 0.1 µM
[5] = curve of first compound, second compound 0.316 µM
[6] = curve of first compound, second compound 1 µM
[7] = second compound 0.00316 µM, first compound 0.0316 µM
[8] = second compound 0.00316 µM, first compound 0.1 µM
[9] = second compound 0.00316 µM, first compound 0.316 µM
[10] = second compound 0.00316 µM, first compound 1 µM
[11] = second compound 0.00316 µM, first compound 3.16 µM
[12] = second compound 0.00316 µM, first compound 10 µM
[13] = second compound 0.01 µM, first compound 0.0316 µM
[14] = second compound 0.01 µM, first compound 0.1 µM
[15] = second compound 0.01 µM, first compound 0.316 µM
[16] = second compound 0.01 µM, first compound 1 µM
[17] = second compound 0.01 µM, first compound 3.16 µM
[18] = second compound 0.01 µM, first compound 10 µM
[19] = second compound 0.0316 µM, first compound 0.0316 µM
[20] = second compound 0.0316 µM, first compound 0.1 µM
[21] = second compound 0.0316 µM, first compound 0.316 µM
[22] = second compound 0.0316 µM, first compound 1 µM
[23] = second compound 0.0316 µM, first compound 3.16 µM
[24] = second compound 0.0316 µM, first compound 10 µM
[25] = second compound 0.1 µM, first compound 0.0316 µM
[26] = second compound 0.1 µM, first compound 0.1 µM
[27] = second compound 0.1 µM, first compound 0.316 µM
[28] = second compound 0.1 µM, first compound 1 µM
[29] = second compound 0.1 µM, first compound 3.16 µM
[30] = second compound 0.1 µM, first compound 10 µM
[31] = second compound 0.316 µM, first compound 0.0316 µM
[32] = second compound 0.316 µM, first compound 0.1 µM
[33] = second compound 0.316 µM, first compound 0.316 µM
[34] = second compound 0.316 µM, first compound 1 µM
[35] = second compound 0.316 µM, first compound 3.16 µM
[36] = second compound 0.316 µM, first compound 10 µM
[37] = second compound 1 µM, first compound 0.0316 µM
[38] = second compound 1 µM, first compound 0.1 µM
[39] = second compound 1 µM, first compound 0.316 µM
[40] = second compound 1 µM, first compound 1 µM
[41] = second compound 1 µM, first compound 3.16 µM
[42] = second compound 1 µM, first compound 10 µM
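Also: spheroids exposed to agents for 7 days before read-out.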
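For viability, T/C in this document: luminescence used as surrogate of cell viability.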

For `CCN1CCN(Cc2ccc(Nc3ncc(F)c(-c4cc(F)c5nc(C)n(C(C)C)c5c4)n3)nc2)CC1`, the viability, T/C (compound 0.00316 µM) was 110% [middle of 4 runs], the viability, T/C (compound 0.01 µM) was 93.5% [middle of 4 runs] and the viability, T/C (compound 0.0316 µM) was 94.2% [middle of 4 runs]. For the same compound, the viability, T/C (compound 0.1 µM) was 82% [middle of 4 runs], the viability, T/C (compound 0.316 µM) was 87% [middle of 4 runs] and the viability, T/C (compound 1 µM) was 74% [middle of 4 runs]. For the same compound, the IC50 (curve of compound) was greater than 1 µM.
With `COc1c(OCCCN2CCOCC2)ccc2c3n(c(=NC(=O)c4cnc(N)nc4)nc12)CCN3` the viability, T/C (compound 0.01 µM) was 85.7% [middle of 8 runs], the viability, T/C (compound 0.0316 µM) was 79.9% [middle of 8 runs] and the viability, T/C (compound 0.1 µM) was 60.7% [middle of 8 runs]. For the same compound, the viability, T/C (compound 0.316 µM) was 47.8% [middle of 8 runs], the viability, T/C (compound 1 µM) was 38.5% [middle of 8 runs] and the IC50 (compound alone, run of 06/13/2023) was 212 nM [middle of 8 runs].
`C=CC(=O)N1CCN(c2nc(=O)n(-c3c(C)ccnc3C(C)C)c3nc(-c4c(O)cccc4F)c(F)cc23)C(C)C1` (configuration not stated) + COc1c(OCCCN2CCOCC2)ccc2c3n(c(=NC(=O)c4cnc(N)nc4)nc12)CCN3 gave an IC50 [1] greater than 10 µM, an IC50 [2] greater than 10 µM and an IC50 [3] greater than 10 µM. It also gave an IC50 [4] greater than 10 µM, an IC50 [5] of less than 0.0316 µM and an IC50 [6] of less than 0.0316 µM. For the same compound, the viability, T/C [7] was 112%, the viability, T/C [8] was 101% and the viability, T/C [9] was 91.7%. For the same compound, the viability, T/C [10] was 92.6%, the viability, T/C [11] was 111% and the viability, T/C [12] was 70.2%. For the same compound, the viability, T/C [13] was 95.5%, the viability, T/C [14] was 97.8% and the viability, T/C [15] was 90.8%. The viability, T/C [16] was 80.4%, the viability, T/C [17] was 84.8% and the viability, T/C [18] was 73.5%. It also gave a viability, T/C [19] of 74%, a viability, T/C [20] of 81.7% and a viability, T/C [21] of 73.1%. It also gave a viability, T/C [22] of 70.3%, a viability, T/C [23] of 85.6% and a viability, T/C [24] of 79.8%. The viability, T/C [25] was 55.3%, the viability, T/C [26] was 78.6% and the viability, T/C [27] was 63.9%. The viability, T/C [28] was 66%, the viability, T/C [29] was 84% and the viability, T/C [30] was 52%. The viability, T/C [31] was 50.5%, the viability, T/C [32] was 41% and the viability, T/C [33] was 41.3%. The viability, T/C [34] was 40.3%, the viability, T/C [35] was 50.1% and the viability, T/C [36] was 42.6%. It also gave a viability, T/C [37] of 33.6%, a viability, T/C [38] of 36% and a viability, T/C [39] of 29.6%. The viability, T/C [40] was 34.5%, the viability, T/C [41] was 37.9% and the viability, T/C [42] was 39.5%.
`Cn1nccc1Nc1nccc(-c2ccn(C(CO)c3ccc(Cl)c(F)c3)c(=O)c2)n1` (configuration not stated) + COc1c(OCCCN2CCOCC2)ccc2c3n(c(=NC(=O)c4cnc(N)nc4)nc12)CCN3 showed an IC50 [1] greater than 10 µM, an IC50 [2] greater than 10 µM and an IC50 [3] greater than 10 µM. For the same compound, the IC50 [4] was greater than 10 µM, the IC50 [5] was 0.0651 µM and the IC50 [6] was less than 0.0316 µM. The viability, T/C [7] was 117%, the viability, T/C [8] was 117% and the viability, T/C [9] was 86.2%. It also gave a viability, T/C [10] of 86.9%, a viability, T/C [11] of 137% and a viability, T/C [12] of 74.5%. The viability, T/C [13] was 96.2%, the viability, T/C [14] was 87.6% and the viability, T/C [15] was 96.4%. For the same compound, the viability, T/C [16] was 100%, the viability, T/C [17] was 97.5% and the viability, T/C [18] was 97.8%. The viability, T/C [19] was 73.5%, the viability, T/C [20] was 96.8% and the viability, T/C [21] was 72.9%. The viability, T/C [22] was 79.2%, the viability, T/C [23] was 83.1% and the viability, T/C [24] was 84.8%. For the same compound, the viability, T/C [25] was 61.1%, the viability, T/C [26] was 67% and the viability, T/C [27] was 55.6%. For the same compound, the viability, T/C [28] was 86.7%, the viability, T/C [29] was 58.9% and the viability, T/C [30] was 43.6%. The viability, T/C [31] was 58.5%, the viability, T/C [32] was 43% and the viability, T/C [33] was 34.8%. It also gave a viability, T/C [34] of 49.5%, a viability, T/C [35] of 57.5% and a viability, T/C [36] of 29.3%. The viability, T/C [37] was 44.4%, the viability, T/C [38] was 31% and the viability, T/C [39] was 40.7%. The viability, T/C [40] was 49.4%, the viability, T/C [41] was 42.9% and the viability, T/C [42] was 27.6%.
